Reference: US20250255847A1, “[…]s: Novel Drugs for Triple Negative Breast Cancer” (SIMMARON RSEARCH INC, priority 2024, published 2025)

How the values were obtained:
[1] = tested on: RANTES; assay: RANTES real-time PCR and ELISA in MDA-MB-468 cells; format: cell-based, human; conditions: 20 nM; for gene expression of RANTES (real-time PCR): 5 hrs post-treatment; for protein expression of RANTES (ELISA): 48 hrs post treatment
Method: (§1) FIG. 10 illustrates an embodiment of the present invention and illustrates SIM-1 and SIM-2 inhibit expressions of IL6, RANTES, and other STAT3-dependent tumor promoting genes and proteins. (A) A gene array of STAT3 dependent 66 genes (listed in Table 1) was performed in mRNA samples of MDA-MB-468 cells. Realtime PCR plate coated with 66 primer sets of STAT3-dependent genes was run for four conditions including control, EGF (25 ng/mL), EGF+SIM-1 (10 nM) and EGF+SIM-2 (10 nM). The resultant Ct value was normalized with four different housekeeping genes, and then summarized with a heatmap analyses drawn in Morpheus server of Broad Institute. […] (C) The cloning of STAT3 response element of IL6 promoter upstream of GFP reporter was performed by GeneCopoea genome editing service (Rockville, MD). The bit score map and sequence of consensus STAT3 response element or SEQ ID NO: 2 was shown below. EGFP reporter assay was performed in EGF-induced (20 ng/mL) MDA-MB-468 after treatments of increasing doses of (D) SIM-1 and (E) SIM-2 for 5 hrs. Briefly, MDA-MB-468 cells were transfected with the plasmid for 24 hrs using Lipofectamine transfection strategy followed by the treatment with EGF (20 ng/mL) alone and together with increasing doses SIM-1 and SIM-2 for additional 5 hrs. After that live cells were recorded at Ex:Em=485/535 nm wavelength for GFP activity. (F) The scrambled STAT3 response element in IL6 promoter or SEQ ID NO: 3 was also synthesized partnering with GeneCopoea. One-way ANOVA (treatment as effector) was adopted to test the significance between groups at **p<0.01, #p<0.005, and *p<0.05. (G) The GFP reporter activity was measured where the scrambled gene was cloned upstream of eGFP reporter. Results are mean±SD of three different experiments Ns=no significance. (H) Realtime PCR analyses of IL6 was performed in MDA-MB-468 cells maintained under control, EGF (25 ng/mL), EGF+SIM-1(20 nM), and EGF+SIM-2 (20 nM) conditions for 5 hrs. (I) ELISA analysis of IL6 was performed after 48 hrs in MDA-MB-468 cells kept under similar treatment conditions. (J) Realtime PCR (5 hrs post-treatment) and (K) ELISA analyses of RANTES (48 hrs post treatment) were performed under similar condition. Results are mean±SD of three different experiments. One-way ANOVA (treatment as effector) was adopted to test the significance between groups at ***p<0.001, **p<0.01, and *p<0.05.
(§2) ELISA assay. IL6 (BD OptEIA™; Cat #555220) and RANTES (Thermo; Cat #EHRNTS) ELISA was performed as per manufacturer's protocol. […]
(§3) Once the transcriptional regulation of STAT3-dependent genes was confirmed, the quantification of IL6 was performed. […]

[2] = tested on: STAT3-dependent tumor-promoting genes; assay: Gene array of 66 STAT3-dependent tumor-promoting genes in PDX tumors; format: in vivo, mouse; conditions: tumor tissue; for number of the 66 STAT3-dependent genes strongly downregulated: out of 66 genes
Method: FIG. 15 illustrates an embodiment of the present invention and illustrates SIM 1 and 2 inhibited Y705P phosphorylation of STAT3 and the expressions of STAT3-dependent tumor supportive genes. (A) DAB immunostaining of Y705P STAT3 in tumor parenchyma of all three groups. (B) Quantitative analysis of Y705P STAT3-ir cells was performed by counting Y705P STAT3 cells in 15 different images, converting into a percent scale, and then plotting in a scatter histogram. On-way ANOVA followed by multiple comparison test indicated ****p<0.0001 versus control. (C) DAB immunostaining of S727P STAT3 followed by a (D) quantitative analysis of S727P STAT3-ir cells was performed in 15 different images and then plotted as a percent of total cells by a scatter histogram. On-way ANOVA represents no significance (NS) between groups. (E) Immunoblot analyses of Y705PSTAT3 (Rabbit […] antibody Cat #710093; Invitrogen), S727PSTAT3 (Mouse 1° antibody cat #MA5-15208; Invitrogen) followed by normalization with loading control β-actin (Mouse 1° antibody cat #MA1-744; Invitrogen). (F) A cDNA-based gene array of 66 STAT3-dependent tumor promoting genes were analyzed in TNBC tumors of vehicle-, SIM-1-, and SIM-2-treated mice. (G) A scatter plot summarized the gene array results. Based on the relative levels of expressions, gene levels were classified as low, moderate, and highly expressed. Results are confirmed after three different experiments.
These genes include anti-apoptotic genes such as bcl-2, survivin, and bcl-xl; cell cycle progression markers such as cyclin D1, akt, and p21.

[3] = tested on: IL6; assay: IL6 real-time PCR and ELISA in MDA-MB-468 cells; format: cell-based, human; conditions: for gene expression of IL6 (real-time PCR): 20 nM, 5 hrs; for IL6 protein in supernatants (ELISA): EGF stimulation, 48 hrs
Method: as §1, §2, §3

[4] = tested on: transcriptional activity of STAT3; assay: STAT3-responsive eGFP reporter assay in MDA-MB-468 cells; format: cell-based, human; conditions: for EGF-induced GFP reporter activity: EGF 20 ng/mL, different doses; for IC50: Homo sapiens, MDA-MB-468, read-out: IC50 of STAT3 activation (eGFP reporter); for lowest concentration inhibiting STAT3 activation (eGFP reporter): as low as
Method: as §1
GFP reporter assay. To assay the transcriptional activities of STAT3, cells at 75% confluence were transfected by 0.1 μg of pEZX-PF02 plasmid cloned with STAT3 response element of IL6 promoter upstream of eGFP reporter. The transfection was done by Lipofectamine 3000™ reagent as per the manufacturer's protocol (Thermofisher). […] GFP reporter activities were analyzed in PerkinElmer VictorX3 plate reader at Ex:Em=485/535 nm.
Once recruited to the DNA, STAT3 controls the gene transcription. Therefore finally, an eGFP reporter assay was performed to evaluate if SIM-1 and SIM-2 inhibited the transcriptional activity of STAT3. An eGFP reporter cassette was cloned under the guidance of IL6 promoter carrying STAT response element (FIG. 10C), transfected in MDA-MB-468 cells, and then treated by EGF (20 ng/mL) along with different doses of SIM-1 and SIM-2.

## O=C(O)CCC(=O)NCc1csc2ccc(Cl)cc12 [SIM-1, 4-[(5-chloro-1-benzothiophen-3-yl)methylamino]-4-oxobutanoic acid]
[1]
  gene expression of RANTES (real-time PCR): significantly downregulated
  protein expression of RANTES (ELISA): significantly downregulated
[2]
  number of the 66 STAT3-dependent genes strongly downregulated: 55
  tumor growth suppressor gene p53 expression: significantly upregulated
[3]
  gene expression of IL6 (real-time PCR): strongly inhibited
  IL6 protein in supernatants (ELISA): suppression of IL6
[4]
  EGF-induced GFP reporter activity: dose-dependently inhibited
  IC50: ~20 nM
  lowest concentration inhibiting STAT3 activation (eGFP reporter): 5 nM

## CCOC(=O)c1c(NC(C)=O)sc2c(Cl)c(/C=N/O)ccc12 [SIM-2, ethyl 2-acetamido-7-chloro-6-(hydroxyiminomethyl)-1-benzothiophene-3-carboxylate]
[1]
  gene expression of RANTES (real-time PCR): significantly downregulated
  protein expression of RANTES (ELISA): significantly downregulated
[2]
  number of the 66 STAT3-dependent genes strongly downregulated: 55
  tumor growth suppressor gene p53 expression: significantly upregulated
[3]
  gene expression of IL6 (real-time PCR): strongly inhibited
  IL6 protein in supernatants (ELISA): suppression of IL6
[4]
  EGF-induced GFP reporter activity: dose-dependently inhibited
  IC50: ~20 nM
  lowest concentration inhibiting STAT3 activation (eGFP reporter): 5 nM
